From patent US10495796B2, “Near-infrared cut filter” (AGC INC., priority 2012, dated 2019)

Assays:
Format in all cases: physicochemical
[1] = Solubility of dye to organic solvent; settings: 50° C., mass % of the dye to the mass of the entire solution; for Solubility to organic solvent: MIBK: methyl isobutyl ketone
Description: Regarding the dyes (A11-1) to (A11-10) and (A11-20) to (A11-27) obtained above, solubility to organic solvent was evaluated as follows.
Three kinds of solvents, cyclohexanone, methyl isobutyl ketone (MIBK), toluene, were used as the organic solvent in the solubility test. Note that in Table 3, % is mass % of the dye to the mass of the entire solution. Further, the temperature of each organic solvent in the solubility test was 50° C.

[2] = Absorption characteristics: transmission spectrum of near-infrared absorbing layer of NIR filter (UV-visible spectrophotometer)
Description: Further, the transmittance of the near-infrared absorbing layer can be measured by using an ultraviolet visible light spectrophotometer. For example, when the near-infrared absorbing layer is provided on a glass substrate, the transmittance is calculated by subtracting the transmittance of only the glass substrate. Note that the transmittance of light of the near-infrared absorbing layer refers to, unless otherwise stated, a ratio to light incident from a direction orthogonal to a main surface of a sample, the ratio of this light traveling straight inside the sample and transmitted to an opposite side. Further, when the transmittance is measured by making light incident from a direction other than the direction orthogonal to the main surface of the sample in the measurement of transmittance of light, an angle made by a straight line indicating the direction of the incident light to a line orthogonal to the main surface is called an incident angle.
In the condition (ii-3), the value calculated by nd(B)×(λa−λc) (hereinafter, this value may also be described as “Is value”) is a value to be an index indicating steepness of the absorption curve in the vicinity of the boundary between the visible light region and the near-infrared region with respect to a transmission spectrum of the near-infrared absorbing layer. When this value is 115 or less, the absorption curve in the vicinity of the boundary between the visible light region and the near-infrared region is steep with respect to the near-infrared absorbing layer, which can be said as preferable for the NIR filter.
That is, with respect to the transmission spectrum of the near-infrared absorbing layer, the smaller the difference (λa−λc) between the shortest wavelength λa with transmittance of 1% in the region of 650 nm to 800 nm and the wavelength λc with transmittance of 70% on a shorter wavelength side than the λa, the steeper the absorption curve in the vicinity of the boundary between the visible light region and the near-infrared region. Here, λa−λc also depends on a wavelength width having transmittance of 1% or less (λb−λa; λb is the longest wavelength with transmittance of 1% in the wavelength region of 650 nm to 800 nm). Accordingly, in order to compare and evaluate the steepness of the absorption curve in the above region of the transmission spectrum of the near-infrared absorbing layer, λb−λa is fixed to 30 nm. That is, λb−λa of the near-infrared absorbing layer which the present filter has is not limited to 30 nm.
Further, in the Is value, (λa−λc) is multiplied by the refractive index nd(B) of the transparent resin (B) contained in the near-infrared absorbing layer as a coefficient. This is to standardize the difference in steepness among resins.
Regarding transmittance (%/nm) of the NIR filters 1 to 109 obtained above, transmission spectra were measured and calculated by using an ultraviolet visible light spectrophotometer (U-4100 type spectrophotometer made by Hitachi High-Technologies Corporation). Analysis results of transmission spectra of the near-infrared absorbing layers which the NIR filters have are presented in Table 4, Table 5 and Table 6 for the NIR filters 1 to 25, 26 to 51, 52 to 75, respectively, and are presented in Table 7 and Table 8 for the NIR filters 76 to 94, 95 to 109, respectively. In Table 4 to Table 8, the ratios (parts by mass) of dyes to 100 parts by mass of the transparent resin (B) and film thicknesses of the near-infrared absorbing layers are described together.
Further, conditions of preferred transmission spectra of the near-infrared absorbing layers in the present filter and Is values obtained by the formula: nd(B)×(λa-λc) described in above (ii-3) are described in Table 4 to Table 8 together with λa in the condition (ii-1) and λb-λa in the condition (ii-2). Note that values described in Table 4 to Table 8 are values obtained by subtracting transmittance of a glass plate from transmittance of an NIR filter. […]

[3] = Transmittance and 20% shift (incident angle dependency) of NIR filter having selected wavelength shielding layer; settings: NIR filter 110: dye 3.0 parts by mass per 100 of polyester resin B-OKP2 (nd(B) 1.64), with selected wavelength shielding layer and antireflection layer
Description: In the present filter, the visible light transmittance is secured sufficiently by satisfying the condition (iv-1), and moreover, angle dependency which the dielectric multilayer film has is solved, and the light shielding property of the near-infrared region is secured sufficiently in a wide wavelength region without being affected by the influence of the incident angle by satisfying the conditions (iv-2) and (iv-3). • Here, in the condition (iv-3), the angle dependency is evaluated by using a shift of wavelength in 20% transmittance when the incident angle is 0 degree and when it is 30 degrees as an index.
Transmittance of the NIR filter of Example 110 was measured as transmittance of light incident from a direction orthogonal to a main surface, that is, light with an incident angle of 0 degree and transmittance of light incident from a direction making an angle of 30 degrees relative to a line orthogonal to the main surface, that is, light with an incident angle of 30 degrees by using an ultraviolet visible light spectrophotometer (U-4100 type spectrophotometer made by Hitachi High-Technologies Corporation), so as to obtain a transmission spectrum. A 20% shift (30 degrees) is a difference between a value of a wavelength with transmittance of 20% of light with an incident angle of 0 degree (indicated as “λ20-0”) and a value of a wavelength with transmittance of 20% of light with an incident angle of 30 degrees (indicated as “λ20-30”).
Moreover, a transmission spectrum of light with an incident angle of 40 degrees was obtained similarly. Further, the difference between a value of a wavelength with transmittance of 20% of light with an incident angle of 0 degree (λ20-0) and a value of a wavelength with transmittance of 20% of light with an incident angle of 40 degrees (indicated as “λ20-40”) was obtained as a 20% shift (40 degrees).
The near-infrared absorbing layer was formed on a glass plate similarly to Example 7 except that a glass plate on which the selected wavelength shielding layer is formed was used on a face opposite to an application face of the coating liquid for forming the near-infrared absorbing layer. Moreover, the antireflection layer was formed on the near-infrared absorbing layer, so as to obtain the NIR filter 110. The film thickness in the selected wavelength shielding layer in its entirety was approximately 8.9 μm, and the film thickness in the antireflection layer in its entirety was approximately 0.34 μm. The transmittance of the obtained NIR filter 110 was measured, and 20% shifts (30 degrees) and (40 degrees) were obtained. Results thereof are presented in Table 9 together with structures of the near-infrared absorbing layer. FIG. 6 illustrates transmission spectra of light with incident angles of 0 degree, 30 degrees and 40 degrees of the wavelength region of 660 nm to 690 nm in the NIR filter 110 by a solid line, a dotted line and a dashed line, respectively.

[4] = transparent resin acrylic resin BR50, nd(B) 1.56, film thickness 2.3 μm
[5] = transparent resin polycarbonate EP5000, nd(B) 1.63, film thickness 2.4 μm
[6] = transparent resin polycarbonate SP3810, nd(B) 1.63, film thickness 1.0 μm
[7] = transparent resin polycarbonate SP3810, nd(B) 1.63, film thickness 2.8 μm
[8] = transparent resin polycarbonate SP1516, nd(B) 1.60, film thickness 0.9 μm

CCCCC(CC)C(=O)Nc1cc2c(cc1C1=C([O-])C(=c3cc4c(cc3NC(=O)C(CC)CCCC)=[N+](C(C)C)C(C)C4(C)C)C1=O)C(C)(C)C(C)N2C(C)C (centres unmarked) [Example A11-7]
Solubility to organic solvent: Cyclohexanone [1]: 10%< mass % | Solubility to organic solvent: MIBK [1]: 3.00% mass % | Solubility to organic solvent: Toluene [1]: 10%< mass % | 430 nm to 600 nm Average transmittance [2, 4]: 96.1% | Is value (nd(B)×(λa-λc)) [2, 4]: 101.5 | λa [2, 4]: 695 nm | λa − λc [2, 4]: 65 nm | λb [2, 4]: 715 nm | λb − λa [2, 4]: 30 nm | λc [2, 4]: 630 nm | λmax [2, 4]: 712 nm | 430 nm to 600 nm Average transmittance [2, 5]: 96.9% | Is value (nd(B)×(λa-λc)) [2, 5]: 104.5 | λa [2, 5]: 700 nm | λa − λc [2, 5]: 64 nm | λb [2, 5]: 730 nm | λb − λa [2, 5]: 30 nm | λc [2, 5]: 636 nm | λmax [2, 5]: 715 nm | 430 nm to 600 nm Average transmittance [2, 6]: 95.8% | Is value (nd(B)×(λa-λc)) [2, 6]: 106.3 | λa [2, 6]: 700 nm | λa − λc [2, 6]: 65 nm | λb [2, 6]: 730 nm | λb − λa [2, 6]: 30 nm | λc [2, 6]: 635 nm | λmax [2, 6]: 712 nm | 430 nm to 600 nm Average transmittance [2, 7]: 96.5% | Is value (nd(B)×(λa-λc)) [2, 7]: 104.6 | λa [2, 7]: 700 nm | λa − λc [2, 7]: 64 nm | λb [2, 7]: 730 nm | λb − λa [2, 7]: 30 nm | λc [2, 7]: 636 nm | λmax [2, 7]: 716 nm | 20% shift 30 degrees (λ20-0-λ20-30) [3]: 1 nm | 20% shift 40 degrees (λ20-0-λ20-40) [3]: 3 nm | 20%-transmittance wavelength of 0-degree incident angle (λ20-0) [3]: 668 nm | 20%-transmittance wavelength of 30-degree incident angle (λ20-30) [3]: 667 nm | 20%-transmittance wavelength of 40-degree incident angle (λ20-40) [3]: 665 nm | Transmittance 420 nm to 620 nm (average) [3]: 88.6% | Transmittance 700 nm to 1100 nm (average) [3]: 0.03% | Transmittance 710 nm to 1100 nm (maximum) [3]: 0.28%

CCCCCCCCCCCC(=O)Nc1cc2c(cc1C1=C([O-])C(=c3cc4c(cc3NC(=O)CCCCCCCCCCC)=[N+](C)C(C)C4(C)C)C1=O)C(C)(C)C(C)N2C (centres unmarked) [Example A11-25, reference compound]
Solubility to organic solvent: Cyclohexanone [1]: 3.00% mass % | Solubility to organic solvent: MIBK [1]: 1.00% mass % | Solubility to organic solvent: Toluene [1]: 10%< mass % | 430 nm to 600 nm Average transmittance [2, 4]: 94.5% | Is value (nd(B)×(λa-λc)) [2, 4]: 129.6 | λa [2, 4]: 688 nm | λa − λc [2, 4]: 83 nm | λb [2, 4]: 718 nm | λb − λa [2, 4]: 30 nm | λc [2, 4]: 605 nm | λmax [2, 4]: 705 nm | 430 nm to 600 nm Average transmittance [2, 5]: 95.5% | Is value (nd(B)×(λa-λc)) [2, 5]: 120.8 | λa [2, 5]: 693 nm | λa − λc [2, 5]: 69 nm | λb [2, 5]: 723 nm | λb − λa [2, 5]: 30 nm | λc [2, 5]: 619 nm | λmax [2, 5]: 710 nm | 430 nm to 600 nm Average transmittance [2, 8]: 95.6% | Is value (nd(B)×(λa-λc)) [2, 8]: 124.8 | λa [2, 8]: 690 nm | λa − λc [2, 8]: 78 nm | λb [2, 8]: 720 nm | λb − λa [2, 8]: 30 nm | λc [2, 8]: 612 nm | λmax [2, 8]: 707 nm | 430 nm to 600 nm Average transmittance [2, 6]: 94.6% | Is value (nd(B)×(λa-λc)) [2, 6]: 122.6 | λa [2, 6]: 693 nm | λa − λc [2, 6]: 75 nm | λb [2, 6]: 723 nm | λb − λa [2, 6]: 30 nm | λc [2, 6]: 618 nm | λmax [2, 6]: 710 nm | 430 nm to 600 nm Average transmittance [2, 7]: 95.3% | Is value (nd(B)×(λa-λc)) [2, 7]: 119.3 | λa [2, 7]: 694 nm | λa − λc [2, 7]: 73 nm | λb [2, 7]: 724 nm | λb − λa [2, 7]: 30 nm | λc [2, 7]: 621 nm | λmax [2, 7]: 710 nm
